Usually inhibition stands for the percentage by which the read-out fell short of the control. Read a low inhibition as a weak effect.

The text below walks through data of US5362480A, “Oral hygiene compositions containing amino sugars as antiplaque agents” (Lever Brothers Company, Division of Conopco, Inc., priority 1992, dated 1994).

≈ marks a conversion by molar mass, not a printed value. Read-outs that look alike come from different tables or passages of the source.

Assay [1] deals with A. naeslundii PK29. Description: Latex bead-bacterial agglutination assay (asialofetuin-coated latex beads). The format is cell-based, Actinomyces naeslundii PK29. The protocol:
A latex bead agglutination assay was utilized to determine the effects of the amino sugars on lectin-mediated bacterial adherence to glycoprotein-coated surfaces. Latex beads (6.0 micrometer diameter) were prepared by suspending them in a 0.5 mg/ml solution of asialofetuin (a glycoprotein rich in oligosaccharide side chains which terminate in β-galactosyl groups) in 20.0 mM trishydroxyaminomethane buffer (ph=8.2) containing 0.73% glycine, 1.0% sodium chloride, 0.1 mM calcium chloride, and 0.02% sodium azide (TGS buffer). The beads were treated for 30.0 min at 37 degrees C. after which they were washed and resuspended in 0.1% BSA in TGS buffer. A. naeslundii PK29 cells were cultured as described in Bacterial Coaggregation Assay, washed, and resuspended in TGS buffer to an optical density (540 nm) of 1.5. The bacterial suspension (0.1 ml) and the prepared latex beads (1.0 ml) were combined with an appropriate concentration of inhibitor (0.8 ml) in 3.0 ml capped polystyrene cuvettes. The cuvettes were gently inverted at room temperature, and optical density (OD 540nm, 1 cm path length) was monitored at 2.0 min intervals for 20.0 min. The instrument employed was Gilson Response®.
The ability of the amino sugars to inhibit bacterial adhesion was also tested using the latex bead assay described above (Methods section). This assay measures the ability of the test agents to interfere with bacterial adhesion to a glycoprotein-coated solid surface, which is analogous to pellicle coated tooth surface. Agglutination of asialofetuin-coated latex beads by A. naeslundii PK29 performed as described above. Inhibition was calculated as 1.0--the change in optical density (540 nm) in the sample containing the inhibitor/the change in optical density in the coaggregation buffer control.

Assay [2] in a line: Bacterial coaggregation assay (A. naeslundii PK29 with S. sanguis G9B). Format: cell-based, Actinomyces naeslundii PK29; Streptococcus sanguis G9B. The conditions noted are these: Actinomyces naeslundii. The protocol: (§1) A bacterial coaggregation assay was used to determine the ability of various amino sugars to interfere with lectin-mediated binding among various bacterial species. For instance, many Actinomyces naeslundii strains coaggregate with Streptococcus sanguis as a result of binding between a lectin produced by the A. naeslundii cells and β-galactose-containing structures on the surface of the streptococci. For the present assay, A. naeslundii PK29 and S. sanguis G9B were cultured overnight in a medium containing 2.5% tryptone, 1.5% yeast extract, 0.1% magnesium sulfate, and 1.0% fructose. The cells were then washed twice in a 1.0 mM potassium phosphate buffer (pH=6.8) containing 1.0 mM calcium chloride, 0.1 mM magnesium chloride, and 50.0 mM potassium chloride (buffered KCl), after which they were resuspended in buffered KCl at an optical density (540 nm) of 1.5. The coaggregations were performed by combining 0.5 ml of each bacterial suspension with 0.2 ml of 5.0% bovine serum albumin (BSA) and 0.8 ml of an appropriate concentration of a targeted anti-plaque agent in 3.0 ml capped polystyrene cuvettes. The cuvettes (path length 1 cm) were gently inverted at room temperature, and the optical density (540 nm) was determined as a function of time (2.0 min intervals; 20 min).
(§2) The instrument employed to measure optical density was a variable wavelength spectrophotometer (Gilson Respons® Spectrophotometer, bought from Gilson).
(§3) The activity of a tested compound was expressed as inhibition relative to buffer controls (i.e., % inhibition=[1-change in optical density (inhibitor)]/change in optical density [control])×100.
(§4) The ability of various amino sugars (prepared as described in Examples 1 and 2) to target to β-galactose-specific binding proteins on A. naeslundii and thus to interfere with coaggregation interactions between A. naeslundii and S. sanguis was investigated. Coaggregation of Actinomyces naeslundii PK29 and Streptococcus sanguis G9B was performed as described in the Methods section (Bacterial Coaggregation Assay) above. Inhibition was calculated as 1.0--the change in optical density (540 nm) in the sample containing compound tested/the change in optical density in the coaggregation buffer control.

In assay [3] the test system is coaggregation of Actinomyces naeslundii PK29 and Streptococcus sanguis G9B (β-galactose-specific binding proteins on A. naeslundii). Described as above. The format is cell-based. The settings on record: for inhibition compared to the parent saccharide, lactose: vs lactose. The protocol:
as §1, §2, §3, §4

The test system of assay [4] is Actinomyces naeslundii. Description: Antimicrobial activity determination (MIC). The format is cell-based. The settings on record: read-out: Minimum Inhibitory Concentration, Actinomyces naeslundii. The protocol:
(§5) The antimicrobial activity of the targeted agents was assessed by determining the minimum inhibitory concentration (MIC). Pure cultures of various strains of oral bacterial species as indicated in Table 3 were combined with serial dilutions of the targeted agents in beef heart infusion broth (BHI); starting bacterial concentrations were approximately 1.0×10E6 colony forming units (CFU) per ml. The mixtures were incubated aerobically at 37 degrees C. and the optical density (540 nm, path length 1 cm) of the cultures was measured at 0.0, 24.0 and 48.0 hr using Bausch and Lomb Spec 20 variable wavelength spectrophotometer.
(§6) The amino sugars within the scope of the invention and other compounds were tested for their bacteriostatic effects on the growth of several species of oral bacteria.

In assay [5] the test system is Streptococcus sanguis. Briefly: Antimicrobial activity determination (MIC). The conditions noted are these: read-out: Minimum Inhibitory Concentration, Streptococcus sanguis. The format is cell-based. Here is the method: as §5, §6
The subject of assay [6] is Streptococcus sobrinus. Description: Antimicrobial activity determination (MIC). Format: cell-based, Streptococcus sobrinus 6715. The settings on record: read-out: Minimum Inhibitory Concentration, Streptococcus sobrinus. Here is the method: as §5, §6
Assay [7] has as its system Porphyromonas gingivalis. Briefly: Antimicrobial activity determination (MIC). The settings on record: read-out: Minimum Inhibitory Concentration, Porphyromonas gingivalis. The format is cell-based, Porphyromonas gingivalis W83. Here is the method: as §5, §6
In assay [8] the test system is Neisseria subflava. Description: Antimicrobial activity determination (MIC). Format: cell-based, Neisseria subflava A1078. The settings on record: read-out: Minimum Inhibitory Concentration, Neisseria subflava. Here is the method:
as §5, §6

Assay [9] concerns Actinomyces viscosus. The conditions noted are these: cited from earlier work.
In assay [10] the test system is Actinomyces naeslundii. The conditions noted are these: cited from earlier work.
Assay [11] relates to Actinomyces strains 12104 and LY7. The settings on record: cited from earlier work.
For assay [12], the system named is Clinical plaque strains. The conditions noted are these: mouth rinse, five human individuals; cited from earlier work.
Assay [13] deals with Prevotella intermedius. Briefly: Antimicrobial activity determination (MIC). Format: cell-based, Prevotella intermedius 25611. The settings on record: BHI broth, 37 degrees C., aerobic, read-out: Minimum Inhibitory Concentration, Prevotella intermedius. Here is the method:
as §5, §6

The subject of assay [14] is Veillonella dispar. Description: Antimicrobial activity determination (MIC). Format: cell-based, Veillonella dispar 17745. The settings on record: BHI broth, 37 degrees C., aerobic, read-out: Minimum Inhibitory Concentration, Veillonella dispar. The protocol:
as §5, §6

The mark [15] stands for this setting: BHI broth, 37 degrees C., aerobic.

For `CCCCCCCCCCN[C@@H]1O[C@H](CO)[C@H](O)[C@H](O)[C@H]1O` [N-decyl galactosylamine], 1800 µM produced 51% inhibition in assay [1] (Actinomyces naeslundii, PK29). For the same compound, the “inhibition of agglutination compared to galactose” value in assay [1] (vs galactose) was “substantially more potent inhibitor”.

As to `CCCCCCCN[C@@H]1O[C@H](CO)[C@H](O)[C@H](O)[C@H]1O` [N-heptyl galactosylamine], in [2], the inhibition at 2900 µM turned out to be 20%. Besides, the “inhibition of β-galactose-specific coaggregation (in words)” value in [3] is “effective inhibitors”. Besides, in assay [3] (at the concentration tested, vs galactose), the “inhibition of bacterial coaggregation compared to the parent saccharide, galactose” value is given as “approximately twice as much”. The MIC in [4] (setting [15]) was 250 µg/mL (≈ 901 µM); in assay [5] (setting [15]), greater than 1000 µg/mL; in assay [6] (setting [15]), 1000 µg/mL (≈ 3610 µM); in [7] (setting [15]) it was 125 µg/mL (≈ 451 µM); in [8] (setting [15]), 125 µg/mL (≈ 451 µM).

With `CCCCCCCN[C@@H]1O[C@H](CO)[C@@H](O[C@@H]2O[C@H](CO)[C@H](O)[C@H](O)[C@H]2O)[C@H](O)[C@H]1O` [N-heptyl lactosylamine], the inhibition at 1100 µM in [2] came to 23%. 3000 µM produced 63% inhibition in assay [2]. In addition, the inhibition at 11400 µM in [2] was found to be 79%. In addition, the “inhibition of β-galactose-specific coaggregation (in words)” value in assay [3] was “effective inhibitors”. The “inhibition compared to the parent saccharide, lactose” value in assay [3] is “slighly improved inhibition”. Further, the MIC was 500 µg/mL (≈ 1140 µM) in assay [4] (setting [15]); greater than 1000 µg/mL in [5] (setting [15]); 1000 µg/mL (≈ 2280 µM) in assay [6] (setting [15]); 500 µg/mL (≈ 1140 µM) in assay [7] (setting [15]); 500 µg/mL (≈ 1140 µM) in assay [8] (setting [15]).

As to `CCOC1O[C@H](CO)[C@H](O)[C@H](O[C@@H]2O[C@H](CO)[C@H](O)[C@H](O)[C@H]2NC(C)=O)[C@H]1O` (stereo partly drawn) [N-acetyl-galactosamine-β1,3-galactose-O-ethyl], the “inhibition of binding to human erythrocytes” value in assay [9] and in assay [10] was “inhibitor of binding” each time.

As for `CCO[C@H]1O[C@H](CO)[C@H](O)[C@H](O[C@@H]2O[C@H](CO)[C@H](O)[C@H](O)[C@H]2NC(C)=O)[C@H]1O` [GalNAcβ-3Galα1-O-ethyl], the adherence entry in [11] was “blocked adherence”. The plaque inhibitory activity result in [12] is reported as “plaque inhibitory activity”.

`CCCCCCCCCCNC1O[C@H](CO)[C@@H](O)[C@H](O)[C@H]1O` (stereo partly drawn) [N-decyl glucosylamine]: in [1], the “inhibition of agglutination of glycoprotein-coated latex beads (in words)” value is reported as “not an effective inhibitor”. In [1] (Actinomyces naeslundii, PK29), the inhibition at 1800 µM was found to be 9%. The MIC in assay [4] (setting [15]) was greater than 5000 µg/mL.

`CCCCCCCCNC1O[C@H](CO)[C@@H](O)[C@H](O)[C@H]1O` (stereo partly drawn) [N-octyl glucosylamine, reference compound]: at 3400 µM the inhibition in [2] was 0%. The “inhibition of β-galactose-specific coaggregation (in words)” value in assay [3] is “lack of inhibition”.

Consider `CCCCCCCCCCCCOS(=O)(=O)[O-].[Na+]` [Sodium dodecyl sulfate, reference compound], for which the MIC in assay [4] came to 8 µg/mL; in assay [5], 15 µg/mL; in assay [6], 60 µg/mL; in [7] it was 2 µg/mL; in [13], 16 µg/mL; in assay [14], 60 µg/mL. Also, in assay [8], the MIC amounted to 8 µg/mL.

Turning to `O=C[C@H](O)[C@@H](O)[C@@H](O)[C@H](O)CO` [Galactose, reference compound], the inhibition at 2800 µM in assay [2] was found to be 10%; in assay [1] (Actinomyces naeslundii, PK29) it was 17%.

In [2], `CCCCCCCCCCN[C@@H]1O[C@H](CO)[C@@H](O[C@@H]2O[C@H](CO)[C@H](O)[C@H](O)[C@H]2O)[C@H](O)[C@H]1O` [N-decyl lactosylamine] registered an inhibition at 1000 µM of 11%, an inhibition at 2100 µM of 30% and an inhibition at 3000 µM of 64%. Further, in [3], the “inhibition of β-galactose-specific coaggregation (in words)” value is recorded as “effective inhibitors” and the “inhibition compared to the parent saccharide, lactose” value is “slighly improved inhibition”. For the same compound, the MIC in assay [4] (setting [15]) was determined as 30 µg/mL (≈ 62.3 µM). Further, in [5] (setting [15]), the MIC was determined as 600 µg/mL (≈ 1250 µM). In assay [6] (setting [15]), the MIC turned out to be 30 µg/mL (≈ 62.3 µM). For the same compound, in assay [8] (setting [15]), the MIC turned out to be 60 µg/mL (≈ 125 µM).

For `OC[C@H]1O[C@@H](O[C@H]2[C@H](O)[C@@H](O)C(O)O[C@@H]2CO)[C@H](O)[C@@H](O)[C@H]1O` (stereo partly drawn) [Lactose, reference compound], in assay [2], the inhibition at 3000 µM worked out at 61%.
